Reference: patent US5434182A (priority 1993, dated 1995)
Several values for one entry are separate records, joined by “and”; a condition that tells them apart may be missing. Equal values may be shown once. Entries after “also recorded” stand apart in the source; their conditions may differ. Where a name gives a salt, the structure may show the parent alone. Read-outs that look alike come from different tables or passages of the source.

Columns and labels:
VSV [1] = experiment: microbe, parasite or virus in culture; assay type: cell-based, vesicular stomatitis virus; conditions: for log reduction at 5000 µM / log reduction at 10000 µM: Vesicular stomatitis virus, read-out: Log10 Reduction in VSV Titer
VSV [2] = experiment: microbe, parasite or virus in culture; assay type: cell-based, vesicular stomatitis virus strain Indiana; conditions: for antiviral effect in words: fatty acids of Table 2; for minimal effective concentration: read-out: lowest concentration which reduced the VSV titer by ≥4.0 log10 units
HSV-1 = experiment: microbe, parasite or virus in culture; assay type: cell-based, herpes simplex virus type 1 strain MacIntyre; conditions: 37° C., 30 min; for log reduction at 2000 µg/mL: 2 mg/ml
Visna virus = experiment: microbe, parasite or virus in culture; assay type: cell-based, Visna virus strain K796; conditions: 37° C., 30 min; for log reduction at 2000 µg/mL: 2 mg/ml
VSV [3] = experiment: microbe, parasite or virus in culture; assay type: cell-based, vesicular stomatitis virus strain Indiana
poliovirus = assay type: cell-based, Poliovirus type 1 strain Chat; conditions: 8 mg/ml, 37° C., 30 min; control 10^4.7 TCID50
sperm = experiment: Spermicidal test: motility and viability of sperm in semen; assay type: cell-based; conditions: for coating of sperm: B, D 100 mM in semen, 30 minutes
Protocol: The fatty acids and derivatives thereof disclosed here are useful as spermicides and in the treatment of sexually transmitted diseases. […] Four samples tested were comprised as follows:
Five test tubes were prepared, one for each of Samples A to D and a Control. An amount of 0.5 ml of active semen was added to each test tube. Each of Samples A and B and the Control was at 37° C., and Samples C and D were at room temperature. The percentages of motility and viability were measured from 15 seconds to 5 minutes in the case of each of Samples A to D and from 15 seconds to 2 hours for the Control.

VSV [4] = experiment: microbe, parasite or virus in culture; assay type: cell-based, vesicular stomatitis virus
Total White Blood Cells = experiment: Stability of white blood cells in whole human blood to added lipid; assay type: cell-based; design: unit not given here; conditions: 15 mM, control 6.4
Excerpt: Further testing has shown the effect of monoglyceride esters and ether on the total white blood cell concentration in whole human blood.

[5] = Vesicular stomatitis virus, 0.5 h, read-out: Reduction of virus titer, VSV
[6] = Vesicular stomatitis virus, 0.5 h
[7] = 100 mM in semen, 5 min., Sample B 37° C., Sample D room temperature
[8] = 150 mM in semen, 3 min., Sample A 37° C., Sample C room temperature
[9] = 150 mM in semen, 5 min., Sample A 37° C., Sample C room temperature
[10] = Human alphaherpesvirus 1, 0.5 h, read-out: Reduction of virus titer, HSV-1
[11] = Visna-maedi virus, 0.5 h, read-out: Reduction of virus titer, VV (visna virus)

Compound: CCCCCCCCCCCC(=O)OC[C@@H](O)COP(=O)([O-])OCC[N+](C)(C)C [L-α-Lysophosphatidylcholine lauroyl]
- Log10 Reduction in VSV Titer (VSV [1]): 1.7 Log10 and 2.0 Log10
- log reduction at 5000 µM (VSV [1]): 1.2
- log reduction at 10000 µM (VSV [1]): 2

Compound: CCCCCCCCCCCCCCCC(=O)O [Palmitic (16:0), Palmitic]
- log reduction at 20000 µg/mL (VSV [2]; [5]): 1
- antiviral effect in words (VSV [2]): no or a very small antiviral effect
- log reduction at 20000 µg/mL (HSV-1; Human alphaherpesvirus 1, 0.5 h, 20 mg/ml, read-out: Reduction of virus titer, HSV-1): 1
- log reduction at 20000 µg/mL (Visna virus; Visna-maedi virus, 0.5 h, 20 mg/ml, read-out: Reduction of virus titer, VV (visna virus)): 0.7

Compound: CCCCC/C=C\C/C=C\CCCCCCCC(=O)O [sodium salt of linoleic acid]
- antiviral effect in words (VSV [2]): antiviral effects similar to those of the free acids

Compound: CCCCCCCC/C=C\CCCCCCCC(=O)OCC(O)CO (centres unmarked) [Monoolein (18:1), Monoolein]
- concentration with highest antiviral activity of the concentrations tested (0.5 to 4 mg/ml) (VSV [3]; VSV, 37° C., 30 min): 1.0 mg/ml and 2.8 mM
- log reduction at 1000 µg/mL (VSV [3]; [5]): 2.3

Compound: CCCCC/C=C\C/C=C\C/C=C\C/C=C\CCCC(=O)O [Arachidonic (20:4), arachidonic acid]
- log reduction at 500 µg/mL (VSV [2]; [5]): ≥ 4
- minimal effective concentration (VSV [2]; [6]): 500 µg/mL and 1600 µM
- reduction of poliovirus titer (poliovirus): did not cause a significant reduction of virus titer

Compound: CCCCCCCC/C=C/CCCCCCCC(=O)O [Elaidic (18:1 trans), Elaidic]
- log reduction at 2000 µg/mL (VSV [2]; [5]): ≥ 4
- minimal effective concentration (VSV [2]; [6]): 2000 µg/mL and 7000 µM

Compound: N-dodecylsucrose
- % mot. (sperm; 100 mM in semen, 15 sec., Sample B 37° C., Sample D room temperature): 17%
- % mot. (sperm; 100 mM in semen, 30 sec., Sample B 37° C., Sample D room temperature): 9%
- % mot. (sperm; 100 mM in semen, 1 min., Sample B 37° C., Sample D room temperature): 2%
- % mot. (sperm; 100 mM in semen, 2 min., Sample B 37° C., Sample D room temperature): 0%
- % mot. (sperm; 100 mM in semen, 3 min., Sample B 37° C., Sample D room temperature): 0%
- % mot. (sperm; [7]): 0%
- % via. (sperm; [7]): 0%
- % mot. (sperm; 150 mM in semen, 15 sec., Sample A 37° C., Sample C room temperature): 0%
- % mot. (sperm; 150 mM in semen, 30 sec., Sample A 37° C., Sample C room temperature): 0%
- % mot. (sperm; 150 mM in semen, 1 min., Sample A 37° C., Sample C room temperature): 0%
- % mot. (sperm; 150 mM in semen, 2 min., Sample A 37° C., Sample C room temperature): 0%
- % mot. (sperm; [8]): 0%
- % via. (sperm; [8]): 0%
- % mot. (sperm; [9]): 0%
- % via. (sperm; [9]): 0%
- time within which 0% viability was effected (sperm; A, C 150 mM, B 100 mM in semen): ≤ 3 min
- time within which sperm cells were rendered immobile (sperm; A, C 150 mM, B 100 mM in semen): ≤ 15 s
- coating of sperm (sperm; A, C 150 mM, listed as Solution C): coated the sperm effectively; also recorded: most effective in this regard
- coating of sperm (sperm; A, C 150 mM, listed as Solution D): did not have any coating effect at all

Compound: CCCCCCCCCCCCCCCCCC(=O)O [Stearic (18:0), Stearic]
- log reduction at 20000 µg/mL (VSV [2]; [5]): 0
- antiviral effect in words (VSV [2]): no or a very small antiviral effect

Compound: CCCCCCCC/C=C\CCCCCCCCOC[C@@H](O)CO [1-O-Oleyl-sn-glycerol, 1-O-oleyl-sn-glycerol]
- log reduction at 5000 µM (VSV [4]; Vesicular stomatitis virus, 0.5 h, read-out: Reduction in VSV Titer, 5 mM, no sodium taurocholate, human plasma, 37° 30 min): 0
- log reduction at 10000 µM (VSV [4]; Vesicular stomatitis virus, 0.5 h, read-out: Reduction in VSV Titer, 10 mM, no sodium taurocholate, human plasma, 37° 30 min): 0
- log reduction at 15000 µM (VSV [4]; Vesicular stomatitis virus, 0.5 h, read-out: Reduction in VSV Titer, 15 mM, no sodium taurocholate, human plasma, 37° 30 min): 0
- antiviral activity of MG ethers relative to esters, in words (VSV [4]; human plasma): same lack of antiviral activity as the ester

Compound: CCCCCCCC/C=C\CCCCCCCC(=O)O [sodium salt of oleic acid]
- antiviral effect in words (VSV [2]): antiviral effects similar to those of the free acids

Compound: CCCCCCCC(=O)O [Caprylic (8:0), Caprylic]
- log reduction at 10000 µg/mL (VSV [2]; [5]): 1.8
- antiviral effect in words (VSV [2]): no or a very small antiviral effect
- log reduction at 10000 µg/mL (Visna virus; Visna-maedi virus, 0.5 h, 10 mg/ml, read-out: Reduction of virus titer, VV (visna virus)): ≥ 3.2

Compound: CCCCCCCCCC(=O)O [Capric (10:0), Capric]
- log reduction at 4000 µg/mL (VSV [2]; [5]): ≥ 4
- minimal effective concentration (VSV [2]; [6]): 4000 µg/mL and 22000 µM
- log reduction at 4000 µg/mL (HSV-1; Human alphaherpesvirus 1, 0.5 h, 4 mg/ml, read-out: Reduction of virus titer, HSV-1): ≥ 4
- reduction of poliovirus titer (poliovirus): did not cause a significant reduction of virus titer
- log reduction at 4000 µg/mL (Visna virus; Visna-maedi virus, 0.5 h, 4 mg/ml, read-out: Reduction of virus titer, VV (visna virus)): ≥ 3.2

Compound: CCCCCCCC/C=C\CCCCCCCC(=O)O [Oleic (18:1 cis), Oleic]
- log reduction at 2000 µg/mL (VSV [2]; [5]): ≥ 4
- minimal effective concentration (VSV [2]; [6]): 2000 µg/mL and 7000 µM
- log reduction at 2000 µg/mL (HSV-1; [10]): ≥ 4
- reduction of poliovirus titer (poliovirus): did not cause a significant reduction of virus titer
- log reduction at 2000 µg/mL (Visna virus; [11]): ≥ 3.2

Compound: CCCCCC/C=C\CCCCCCCC(=O)O [Palmitoleic (16:1), Palmitoleic]
- log reduction at 2000 µg/mL (VSV [2]; [5]): ≥ 4
- minimal effective concentration (VSV [2]; [6]): 2000 µg/mL and 15000 µM
- log reduction at 2000 µg/mL (HSV-1; [10]): ≥ 4
- reduction of poliovirus titer (poliovirus): did not cause a significant reduction of virus titer
- log reduction at 2000 µg/mL (Visna virus; [11]): ≥ 3.2

Compound: CC/C=C\C/C=C\C/C=C\CCCCCCCC(=O)O [Linolenic (18:3), Linolenic]
- Reduction of virus titer, VSV (VSV [2]; 1 mg/ml, 37° C., 30 min): ≥ 4.0 log10
- lowest concentration which reduced the VSV titer by ≥4.0 log10 units (VSV [2]; 37° C., 30 min): 1 mg/ml and 3.6 mM
- Reduction of virus titer, HSV-1 (HSV-1; 1 mg/ml): ≥ 4.0 log10
- reduction of poliovirus titer (poliovirus): did not cause a significant reduction of virus titer
- Reduction of virus titer, VV (visna virus) (Visna virus; 1 mg/ml): ≥ 3.2 log10

Compound: CCCC(=O)O [Butyric (4:0), Butyric]
- log reduction at 10000 µg/mL (VSV [2]; [5]): 0
- antiviral effect in words (VSV [2]): no or a very small antiviral effect

Compound: CCCCCCCCCCOC[C@@H](O)CO [1-O-Decyl-sn-glycerol, 1-O-decyl-sn-glycerol]
- Reduction in VSV titer (VSV [4]; 5 mM, with 10 mM sodium taurocholate, human plasma, 37° 30 min): 0 Log10
- antiviral activity of MG ethers relative to esters, in words (VSV [4]; human plasma): just as effective as the naturally occurring esters
- Total White Blood Cells (Total White Blood Cells): 1.31

Compound: L-α-lysophosphatidylcholine caproyl
- Log10 Reduction in VSV Titer (VSV [1]; 5 mM, no sodium taurocholate): 0 Log10
- Log10 Reduction in VSV Titer (VSV [1]; 5 mM, with 10 mM sodium taurocholate): 0 Log10
- Log10 Reduction in VSV Titer (VSV [1]; 10 mM, no sodium taurocholate): 0 Log10
- Log10 Reduction in VSV Titer (VSV [1]; 10 mM, with 10 mM sodium taurocholate): 0 Log10
- Log10 Reduction in VSV Titer (VSV [1]; 15 mM, no sodium taurocholate): 0 Log10
- Log10 Reduction in VSV Titer (VSV [1]; 15 mM, with 10 mM sodium taurocholate): 1.0 Log10

Compound: CCCCCC(=O)O [Caproic (6:0), Caproic]
- log reduction at 10000 µg/mL (VSV [2]; [5]): 0
- antiviral effect in words (VSV [2]): no or a very small antiviral effect

Compound: CCCCCCCCCC(=O)OC[C@@H](O)COP(=O)([O-])OCC[N+](C)(C)C [L-α-lysophosphatidylcholine decanoyl]
- Log10 Reduction in VSV Titer (VSV [1]): 1.7 Log10
- log reduction at 5000 µM (VSV [1]): 1.7
- log reduction at 10000 µM (VSV [1]): 1
